Legend:
[1] = biological target: T1, Biotinylated KRAS G12C protein (Homo sapiens, UniProt P01116, C118S/C51S/C80L/G12C); assay: SOS-catalyzed nucleotide exchange assay; type: biochemical; conditions: for IC50: apparent potency, preincubation time of 60 minutes prior to addition of SOS; for inhibition at 10 µM: 10,000 nM, 60 minutes of preincubation prior to addition of SOS
T1 construct: 183 amino acids; biotin on K10
Procedure: Compounds are added to this complex, and then after 60 minute incubation time the mixture is treated with recombinant SOS protein and unlabeled GTP. Small molecule inhibitors stabilize the Bodipy-GDP complex whereas the untreated protein rapidly exchanges Bodipy-GDP for unlabeled GTP resulting in reduced TR-FRET signal. […] This mixture is then further diluted to 90 nM in an assay buffer (20 mM HEPES, 150 mM sodium chloride, 10 mM magnesium chloride, and 0.005% Tween) containing 15 nM of Terbium-Streptavidin (Invitrogen, catalog #PV3577) and 900 nM of Bodipy-GDP and incubated at room temperature for six hours. […] Each test compound (10 mM stock in DMSO) is diluted in DMSO to make a 10-point, 3-fold dilution series in a 384-well low dead volume microplate (Labcyte, catalog #LP-0200). Once titrations are made, 10 nL of the diluted compounds is acoustically dispensed into a 384-well assay plate (Corning, catalog #3820) using an Echo 550 (Labcyte). […] Each well then receives 3 μL of 240 nM recombinant human SOS protein and 9 mM GTP (Sigma, G8877) in assay buffer and is incubated at room temperature for 60 minutes. The time-resolved fluorescence resonance energy transfer signal for the assay plate is measured on an Envision (PerkinElmer) plate reader: Excitation filter=340 nm; emission1=495 nm; emission2=520 nm; dichroic mirror=D400/D505; delay time=100 μs. The signal of each well is determined as the ratio of the emission at 520 nm to that at 495 nm. […] The apparent effect as a function of compound concentration is fit to a four parameter logistic equation.

NCI-H358 cells = assay: Cellular phospho-ERK assay; type: cell-based; conditions: Homo sapiens, NCI-H358, 2 h, NCI-H358 cells; 2 hour incubation; ratio of p-Erk vs total Erk; read-out: IC50
Procedure: NCI-H358 cells (ATCC® CRL-5807™) were cultured in T150 flask in growth medium (RPMI medium 1640-GlutaMAX™-1 (ThermoFisher Scientific 61870) containing 10% fetal bovine serum (ThermoFisher Scientific 10091148)). The cells were harvested in growth medium after TrypLE (ThermoFisher scientific 12604021) digestion and were seeded in 384-well collagen coated cell culture plate (Corning 356702) at a density of 15,000 cells/well, and incubated at 37° C., 5% CO2 overnight. The compound dose-response titrations were prepared and appropriate amounts of compounds were dispensed in 384-well intermediate plate using Echo 550 liquid handler. RPMI medium 1640-GlutaMAX™-I were added to the intermediate plate and transferred to 384-well cell culture plate, which was incubated at 37° C., 5% CO2 for 2 hours. After removal of medium from the plate, cells were lysed in lysis buffer from Alpha SureFire® Ultra™ Multiplex p-Erk and total Erk assay kit (PerkinElmer MPSU-PTERK) containing Halt™ Protease and Phosphotase inhibitor cocktail (ThermoFisher Scientific 78446) at room temperature with constant shaking at 300 rpm for 30 minutes. The cell lysates were then transferred to OptiPlate-384 plate (PerkinElmer 6005620) and the phosphorylation of Erk and total Erk levels were detected by Alpha SureFire Ultra Multiplex p-Erk kit (PerkinElmer MPSU-PTERK) following the manufacturer's protocol. Assay plates were read on an EnVision Multimode Plate Reader (PerkinElmer) and the ratio of p-Erk vs total Erk in each well was used as the final readout. Dose response curves were analyzed using a 4-parameter logistic model to calculate IC50 values using spotfire software.

T1 sequence (P01116 with tags, fused parts or gaps isoform P01116-2 G12C/C51S/C80L/C118S): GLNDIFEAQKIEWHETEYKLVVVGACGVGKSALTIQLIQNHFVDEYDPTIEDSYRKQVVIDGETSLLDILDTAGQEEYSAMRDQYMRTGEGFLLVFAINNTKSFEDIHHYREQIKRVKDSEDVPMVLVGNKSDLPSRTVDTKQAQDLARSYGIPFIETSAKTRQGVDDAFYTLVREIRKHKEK

An IC50 [1] of 1 nM and an IC50 (NCI-H358 cells) of 41 nM were found for `C=CC(=O)N1CCN(c2cc(C(=O)N[C@@H]3CCC[C@H]3N(C)C)nc3c2CCN(c2cccc4cccc(C)c24)C3)C[C@@H]1CC#N` (mixture of isomers) [Compound 66, 4-((S)-4-acryloyl-3-(cyanomethyl)piperazin-1-yl)-N-((1R,2R)-2-(dimethylamino)cyclopentyl)-7-(8-methylnaphthalen-1-yl)-5,6,7,8-tetrahydro-1,7-naphthyridine-2-carboxamide, as a mixture with 4-((S)-4-acryloyl-3-(cyanomethyl)piperazin-1-yl)-N-((1S,2S)-2-(dimethylamino)cyclopentyl)-7-(8-methylnaphthalen-1-yl)-5,6,7,8-tetrahydro-1,7-naphthyridine-2-carboxamide] in this work.

An IC50 [1] of 90 nM and an IC50 (NCI-H358 cells) of 9770 nM were found for `C=CC(=O)N1CCN(c2cc(C(=O)NC(CC)CN3CCCC3)nc3c2CCN(c2cccc4cccc(C)c24)C3)CC1` (racemic) [Compound 23, rac-4-(4-acryloylpiperazin-1-yl)-7-(8-methylnaphthalen-1-yl)-N-(1-(pyrrolidin-1-yl)butan-2-yl)-5,6,7,8-tetrahydro-1,7-naphthyridine-2-carboxamide] in this work.

An IC50 (NCI-H358 cells) of 324 nM was found for `C=CC(=O)N1CCN(c2cc(C(=O)NCC3CCCN3C)nc3c2CCN(c2cccc4cccc(C)c24)C3)C[C@@H]1CC#N` (mixture of isomers) [Compound 82, 4-((S)-4-acryloyl-3-(cyanomethyl)piperazin-1-yl)-7-(8-methylnaphthalen-1-yl)-N-(((R)-1-methylpyrrolidin-2-yl)methyl)-5,6,7,8-tetrahydro-1,7-naphthyridine-2-carboxamide, as a mixture with 4-((S)-4-acryloyl-3-(cyanomethyl)piperazin-1-yl)-7-(8-methylnaphthalen-1-yl)-N-(((S)-1-methylpyrrolidin-2-yl)methyl)-5,6,7,8-tetrahydro-1,7-naphthyridine-2-carboxamide] in this work.

An IC50 [1] of 180 nM and an IC50 (NCI-H358 cells) of 3550 nM were found for `C=CC(=O)N1CCN(c2c(C)c(C(=O)N[C@H](C)CN(C)C)nc3c2CCN(c2cccc4cccc(C)c24)C3)C[C@@H]1CC#N` (racemic) [Compound 85, 4-((S)-4-acryloyl-3-(cyanomethyl)piperazin-1-yl)-N—((R)-1-(dimethylamino)propan-2-yl)-3-methyl-7-(8-methylnaphthalen-1-yl)-5,6,7,8-tetrahydro-1,7-naphthyridine-2-carboxamide] in this work.

An IC50 [1] of 8.3 nM and an IC50 (NCI-H358 cells) of 1740 nM were found for `C=CC(=O)N1CCN(c2cc(C(=O)NCC3CCCCN3)nc3c2CCN(c2cccc4cccc(C)c24)C3)C[C@@H]1CC#N` (mixture of isomers) [Compound 99, 4-((S)-4-acryloyl-3-(cyanomethyl)piperazin-1-yl)-7-(8-methylnaphthalen-1-yl)-N-(((R)-piperidin-2-yl)methyl)-5,6,7,8-tetrahydro-1,7-naphthyridine-2-carboxamide, as a mixture with 4-((S)-4-acryloyl-3-(cyanomethyl)piperazin-1-yl)-7-(8-methylnaphthalen-1-yl)-N-(((S)-piperidin-2-yl)methyl)-5,6,7,8-tetrahydro-1,7-naphthyridine-2-carboxamide] in this work.

An IC50 [1] of 4.5 nM and an IC50 (NCI-H358 cells) of 1800 nM were found for `C=CC(=O)N1CCN(c2cc(C(=O)NC3(CC)CCNC3)nc3c2CCN(c2cccc4cccc(C)c24)C3)C[C@@H]1CC#N` (mixture of isomers) [Compound 101, 4-((S)-4-acryloyl-3-(cyanomethyl)piperazin-1-yl)-N-((R)-3-ethylpyrrolidin-3-yl)-7-(8-methylnaphthalen-1-yl)-5,6,7,8-tetrahydro-1,7-naphthyridine-2-carboxamide, as a mixture with 4-((S)-4-acryloyl-3-(cyanomethyl)piperazin-1-yl)-N-((S)-3-ethylpyrrolidin-3-yl)-7-(8-methylnaphthalen-1-yl)-5,6,7,8-tetrahydro-1,7-naphthyridine-2-carboxamide] in this work.

An IC50 [1] of 5.4 nM and an IC50 (NCI-H358 cells) of 809 nM were found for `C=CC(=O)N1CCN(c2cc(C(=O)NC3(C)CCCNC3)nc3c2CCN(c2cccc4cccc(C)c24)C3)C[C@@H]1CC#N` (mixture of isomers) [Compound 102, 4-((S)-4-acryloyl-3-(cyanomethyl)piperazin-1-yl)-7-(8-methylnaphthalen-1-yl)-N-((R)-3-methylpiperidin-3-yl)-5,6,7,8-tetrahydro-1,7-naphthyridine-2-carboxamide, as a mixture with 4-((S)-4-acryloyl-3-(cyanomethyl)piperazin-1-yl)-7-(8-methylnaphthalen-1-yl)-N-((S)-3-methylpiperidin-3-yl)-5,6,7,8-tetrahydro-1,7-naphthyridine-2-carboxamide] in this work.

An inhibition at 10 µM [1] of 33% was found for `C=CC(=O)N1CCN(c2cc(C(=O)N3CCC[C@@H]3CN3CCC(=O)N3)nc3c2CCN(c2cccc4cccc(C)c24)C3)CC1` [Compound 43, (R)-1-((1-(4-(4-acryloylpiperazin-1-yl)-7-(8-methylnaphthalen-1-yl)-5,6,7,8-tetrahydro-1,7-naphthyridine-2-carbonyl)pyrrolidin-2-yl)methyl)pyrazolidin-3-one] in this work.

An IC50 [1] of 7290 nM was found for `C=CC(=O)N1CCN(c2cc(C(=O)NC3CN(C)C3)nc3c2CCN(c2cccc4cccc(C)c24)C3)CC1` [Compound 48, 4-(4-acryloylpiperazin-1-yl)-N-(1-methylazetidin-3-yl)-7-(8-methylnaphthalen-1-yl)-5,6,7,8-tetrahydro-1,7-naphthyridine-2-carboxamide] in this work.

An IC50 [1] of 2180 nM was found for `C=CC(=O)N1CCN(c2cc(C(=O)N[C@H]3CCN(C)C3)nc3c2CCN(c2cccc4cccc(C)c24)C3)CC1` [Compound 49, (S)-4-(4-acryloylpiperazin-1-yl)-7-(8-methylnaphthalen-1-yl)-N-(1-methylpyrrolidin-3-yl)-5,6,7,8-tetrahydro-1,7-naphthyridine-2-carboxamide] in this work.

An IC50 [1] of 3570 nM was found for `C=CC(=O)N1CCN(c2cc(C(=O)N[C@@H]3CCN(C)C3)nc3c2CCN(c2cccc4cccc(C)c24)C3)CC1` [Compound 50, (R)-4-(4-acryloylpiperazin-1-yl)-7-(8-methylnaphthalen-1-yl)-N-(1-methylpyrrolidin-3-yl)-5,6,7,8-tetrahydro-1,7-naphthyridine-2-carboxamide] in this work.

An IC50 [1] of 9150 nM was found for `C=CC(=O)N1CCN(c2cc(C(=O)NC3CCN(C)CC3)nc3c2CCN(c2cccc4cccc(C)c24)C3)CC1` [Compound 54, 4-(4-acryloylpiperazin-1-yl)-7-(8-methylnaphthalen-1-yl)-N-(1-methylpiperidin-4-yl)-5,6,7,8-tetrahydro-1,7-naphthyridine-2-carboxamide] in this work.

An inhibition at 10 µM [1] of 38% was found for `C=CC(=O)N1C[C@H](C)N(c2cc(C(=O)NCCN(C)C)nc3c2CCN(c2cccc4cccc(C)c24)C3)C[C@H]1C` [Compound 59, 4-((2S,5R)-4-acryloyl-2,5-dimethylpiperazin-1-yl)-N-(2-(dimethylamino)ethyl)-7-(8-methylnaphthalen-1-yl)-5,6,7,8-tetrahydro-1,7-naphthyridine-2-carboxamide] in this work.

An IC50 [1] of 793 nM was found for `C=CC(=O)N1CCN(c2cc(C(=O)N[C@@H]3[C@H](N)CCCC3(F)F)nc3c2CCN(c2cccc4cccc(C)c24)C3)C[C@@H]1CC#N` [Compound 95, 4-((S)-4-acryloyl-3-(cyanomethyl)piperazin-1-yl)-N-((1R,6R)-6-amino-2,2-difluorocyclohexyl)-7-(8-methylnaphthalen-1-yl)-5,6,7,8-tetrahydro-1,7-naphthyridine-2-carboxamide] in this work.
